Assay results from ChEMBL document CHEMBL4823243, “Synergistic induction of apoptosis in resistant head and neck carcinoma and leukemia by alkoxyamide-based histone deacetylase inhibitors” (Eur J Med Chem, 2021).
pIC50: −log10 of the molar value. Values belong to the compound of their own block, whether it stands above or below them. Calls of active or inactive are those of the source. The calls are words filed in the database; no cut-off is given here.

Columns and labels:
[1] = tested on: HL-60; assay: Induction of apoptosis in human HL-60 cells assessed as caspase 3/7 activation incubated for 48 hrs by Caspase3/7 detection reagent based assay; type: functional, cell-based; conditions: HL-60, 48 h
[2] = biological target: T1, Histone deacetylase (Homo sapiens) (UniProt Q13547+O15379+Q9UBN7+Q92769+Q9UQL6+Q8WUI4+Q9BY41+Q96DB2+P56524+Q9UKV0+Q969S8); assay: Inhibition of HDAC in human CAL-27 cells assessed as combination index at 0.1 uM measured in presence of 5 uM cDDP by MTT-based Chou-Talalay method; type: cell-based
[3] = biological target: T1, Histone deacetylase (Homo sapiens); assay: Inhibition of HDAC in human CAL-27 cells assessed as combination index at 0.2 uM measured in presence of 2 uM cDDP by MTT-based Chou-Talalay method; type: cell-based
[4] = biological target: T1, Histone deacetylase (Homo sapiens); assay: Inhibition of HDAC in human CAL-27 cells assessed as combination index at 0.25 uM measured in presence of 2 uM cDDP by MTT-based Chou-Talalay method; type: cell-based
[5] = biological target: T1, Histone deacetylase (Homo sapiens); assay: Inhibition of HDAC in human Cal27CisR cells assessed as combination index at 2 uM measured in presence of 50 uM cDDP by MTT-based Chou-Talalay method; type: cell-based
[6] = biological target: Histone deacetylase; assay: Inhibition of HDAC in human Cal27CisR cells assessed as potentiation of cisplatin-induced cytotoxicity by measuring cisplatin IC50 at 2 to 3 uM pretreated for 48 hrs followed by cisplatin addition and measured after 72 hrs by MTT assay (reference value: 3.57 uM); type: cell-based
[7] = tested on: CAL-27; assay: Induction of apoptosis in human CAL-27 cells assessed as caspase 7 activation at 2 uM in presence of pretreated for 24 hrs followed by cisplatin treatment and further incubated for 18 hrs by Caspase3/7 detection reagent based assay; type: functional, cell-based; conditions: time 42.0 hrs
[8] = biological target: T1, Histone deacetylase (Homo sapiens); assay: Inhibition of HDAC in human Cal27CisR cells assessed as combination index at 3 uM measured in presence of 10 uM cDDP by MTT-based Chou-Talalay method; type: cell-based
[9] = biological target: T1, Histone deacetylase (Homo sapiens); assay: Inhibition of HDAC in human Cal27CisR cells assessed as combination index at 1.5 uM measured in presence of 50 uM cDDP by MTT-based Chou-Talalay method; type: cell-based
[10] = tested on: CAL-27; assay: Induction of apoptosis in cisplatin resistant human CAL-27 cells assessed as caspase 7 activation at 2 uM in presence cisplatin of pretreated for 24 hrs followed by cisplatin treatment and further incubated for 18 hrs by Caspase3/7 detection reagent based assay; type: functional, cell-based; conditions: time 42.0 hrs
[11] = biological target: T1, Histone deacetylase (Homo sapiens); assay: Inhibition of HDAC in human CAL-27 cells assessed as combination index at 0.75 uM measured in presence of 10 uM cDDP by MTT-based Chou-Talalay method; type: cell-based
[12] = biological target: T1, Histone deacetylase (Homo sapiens); assay: Inhibition of HDAC in human Cal27CisR cells assessed as potentiation of cisplatin-induced cytotoxicity by measuring fold reduction in cisplatin IC50 at 2 to 3 uM pretreated for 48 hrs followed by cisplatin addition and measured after 72 hrs by MTT assay relative to cisplatin alone; type: cell-based; conditions: dose 2-3 µM, time 120.0 hrs
[13] = tested on: CAL-27; assay: Induction of apoptosis in cisplatin resistant human CAL-27 cells assessed as caspase 3 activation at 2 uM pretreated for 24 hrs followed by cisplatin treatment and further incubated for 18 hrs by Caspase3/7 detection reagent based assay; type: functional, cell-based; conditions: time 42.0 hrs
[14] = biological target: T1, Histone deacetylase (Homo sapiens); assay: Inhibition of HDAC in human Cal27CisR cells assessed as combination index at 1.5 uM measured in presence of 20 uM cDDP by MTT-based Chou-Talalay method; type: cell-based
[15] = biological target: T1, Histone deacetylase (Homo sapiens); assay: Inhibition of HDAC in human Cal27CisR cells assessed as combination index at 1 uM measured in presence of 50 uM cDDP by MTT-based Chou-Talalay method; type: cell-based
[16] = biological target: T1, Histone deacetylase (Homo sapiens); assay: Inhibition of HDAC in human CAL-27 cells assessed as combination index at 1.25 uM measured in presence of 10 uM cDDP by MTT-based Chou-Talalay method; type: cell-based
[17] = biological target: T1, Histone deacetylase (Homo sapiens); assay: Inhibition of HDAC in human CAL-27 cells assessed as combination index at 0.5 uM measured in presence of 10 uM cDDP by MTT-based Chou-Talalay method; type: cell-based
[18] = biological target: T1, Histone deacetylase (Homo sapiens); assay: Inhibition of HDAC in human Cal27CisR cells assessed as combination index at 2 uM measured in presence of 10 uM cDDP by MTT-based Chou-Talalay method; type: cell-based
[19] = tested on: CAL-27; assay: Induction of apoptosis in human CAL-27 cells assessed as caspase 3 activation at 2 uM in presence of pretreated for 24 hrs followed by cisplatin treatment and further incubated for 18 hrs by Caspase3/7 detection reagent based assay; type: functional, cell-based; conditions: time 42.0 hrs
[20] = biological target: T1, Histone deacetylase (Homo sapiens); assay: Inhibition of HDAC in human Cal27CisR cells assessed as combination index at 1 uM measured in presence of 20 uM cDDP by MTT-based Chou-Talalay method; type: cell-based
[21] = biological target: Histone deacetylase; assay: Inhibition of HDAC in human CAL-27 cells assessed as potentiation of cisplatin-induced cytotoxicity by measuring cisplatin IC50 at 2 to 3 uM pretreated for 48 hrs followed by cisplatin addition and measured after 72 hrs by MTT assay (reference value: 3.57 uM); type: cell-based
[22] = biological target: T1, Histone deacetylase (Homo sapiens); assay: Inhibition of HDAC in human Cal27CisR cells assessed as combination index at 2 uM measured in presence of 20 uM cDDP by MTT-based Chou-Talalay method; type: cell-based
[23] = biological target: T1, Histone deacetylase (Homo sapiens); assay: Inhibition of HDAC in human Cal27CisR cells assessed as combination index at 0.75 uM measured in presence of 50 uM cDDP by MTT-based Chou-Talalay method; type: cell-based
[24] = biological target: T1, Histone deacetylase (Homo sapiens); assay: Inhibition of HDAC in human CAL-27 cells assessed as combination index at 1.5 uM measured in presence of 10 uM cDDP by MTT-based Chou-Talalay method; type: cell-based
[25] = biological target: T1, Histone deacetylase (Homo sapiens); assay: Inhibition of HDAC in human CAL-27 cells assessed as combination index at 1.5 uM measured in presence of 5 uM cDDP by MTT-based Chou-Talalay method; type: cell-based

- pIC50 [1]: 6.67
Structure (SMILES): O=C(CCCCCONC(=O)c1ccc2ccccc2n1)NO

- CI [2]: 0.53
- CI [3]: 0.63
- CI [4]: 0.37
Structure (SMILES): O=C(CCCCCONC(=O)c1cc2ccccc2[nH]1)NO

- CI [5]: 0.42
- CI [8]: 0.24
- CI [9]: 0.38
- CI [11]: 0.51
- CI [14]: 0.55
- CI [15]: 0.47
- CI [16]: 0.3
- CI [17]: 0.58
- CI [18]: 0.58
- CI [20]: 1.42
- CI [22]: 0.35
- CI [23]: 0.56
- CI [24]: 0.21
- CI [25]: 0.37
Structure (SMILES): O=C(CCCCCONC(=O)c1nccc2ccccc12)NO
- IC50 [6]: 4840 nM
- Activity [7]: Active
- Activity [10]: Active
- Ratio IC50 [12]: 10
- Activity [13]: Active
- Activity [19]: Active
- IC50 [21]: 1100 nM
